Measurements from ChEMBL document CHEMBL3885861, “Open TG-GATES”.

Species: Rattus norvegicus
Assay: Open TG-GATES - Regimen: Daily Repeat
Assay type: toxicity, organism-based, Sprague-Dawley
Parameters: regimen Daily Repeat, gender Male, age 6 weeks
Conditions: in vivo, po, 0 mg/kg, route gavage, dose level Control; for APTT / Bas / Eos / Fbg / Hb / Ht / Lym / MCH / MCHC / MCV / Mono / Neu / PT / Plat / RBC / Ret / WBC: tissue Blood; for KIDNEY_L / KIDNEY_R / KIDNEY_TOTAL: tissue Kidney; for LIVER: tissue Liver; for A/G / ALP / ALT / AST / BUN / CRE / Ca / Cl / DBIL / GLC / IP / K / LDH / Na / PL / RALB / TBIL / TC / TG / TP / gamma-GTP: tissue Plasma

COC1=CC(=O)C[C@@H](C)[C@]12Oc1c(Cl)c(OC)cc(OC)c1C2=O [GRISEOFULVIN]
TERMINAL_BW (72 h, time 3 day): 226.2 g
APTT (72 h, time 3 day): 20.3 s
Bas (72 h, time 3 day): 0%
Eos (72 h, time 3 day): 1%
Fbg (72 h, time 3 day): 209.6 mg/dL
Hb (72 h, time 3 day): 12.8 g/dL
Ht (72 h, time 3 day): 38%
Lym (72 h, time 3 day): 81.8%
MCH (72 h, time 3 day): 21.4 pg
MCHC (72 h, time 3 day): 33.6%
MCV (72 h, time 3 day): 63.5 fL
Mono (72 h, time 3 day): 2.4%
Neu (72 h, time 3 day): 15%
PT (72 h, time 3 day): 13.1 s
Plat (72 h, time 3 day): 133.8 x10_4/uL
RBC (72 h, time 3 day): 598.2 x10_4/ul
Ret (72 h, time 3 day): 6.7%
WBC (72 h, time 3 day): 92 x10_2/uL
KIDNEY_L (72 h, time 3 day): 0.9 g
KIDNEY_R (72 h, time 3 day): 0.9 g
KIDNEY_TOTAL (72 h, time 3 day): 1.9 g
LIVER (72 h, time 3 day): 10.4 g
A/G (72 h, time 3 day): 1.6
ALP (72 h, time 3 day): 917.8 IU/L
ALT (72 h, time 3 day): 35 IU/L
AST (72 h, time 3 day): 66.2 IU/L
BUN (72 h, time 3 day): 14.6 mg/dL
CRE (72 h, time 3 day): 0.4 mg/dL
Ca (72 h, time 3 day): 10.6 mg/dL
Cl (72 h, time 3 day): 104.4 meq/L
DBIL (72 h, time 3 day): 0.1 mg/dL
GLC (72 h, time 3 day): 210.8 mg/dL
IP (72 h, time 3 day): 7.7 mg/dL
K (72 h, time 3 day): 4 meq/L
LDH (72 h, time 3 day): 154 IU/L
Na (72 h, time 3 day): 141 meq/L
PL (72 h, time 3 day): 130.6 mg/dL
RALB (72 h, time 3 day): 3.3 g/dL
TBIL (72 h, time 3 day): 0.2 mg/dL
TC (72 h, time 3 day): 69 mg/dL
TG (72 h, time 3 day): 79 mg/dL
TP (72 h, time 3 day): 5.3 g/dL
gamma-GTP (72 h, time 3 day): 1.2 IU/L
TERMINAL_BW ([…], time 7 day): 261.4 g
TERMINAL_BW ([…], time 14 day): 310.7 g
TERMINAL_BW ([…], time 28 day): 391 g
APTT ([…], time 7 day): 18.8 s
Bas ([…], time 7 day): 0%
Eos ([…], time 7 day): 0.8%
Fbg ([…], time 7 day): 236 mg/dL
Hb ([…], time 7 day): 14.1 g/dL
Ht ([…], time 7 day): 42%
Lym ([…], time 7 day): 78%
MCH ([…], time 7 day): 21.7 pg
MCHC ([…], time 7 day): 33.6%
MCV ([…], time 7 day): 64.8 fL
Mono ([…], time 7 day): 3%
Neu ([…], time 7 day): 17.4%
PT ([…], time 7 day): 12.3 s
Plat ([…], time 7 day): 122.6 x10_4/uL
RBC ([…], time 7 day): 647.4 x10_4/ul
Ret ([…], time 7 day): 5.2%
WBC ([…], time 7 day): 117.8 x10_2/uL
APTT ([…], time 14 day): 19.7 s
Bas ([…], time 14 day): 0%
Eos ([…], time 14 day): 1%
Fbg ([…], time 14 day): 226.2 mg/dL
Hb ([…], time 14 day): 14.1 g/dL
Ht ([…], time 14 day): 42.2%
Lym ([…], time 14 day): 81.2%
MCH ([…], time 14 day): 20.8 pg
MCHC ([…], time 14 day): 33.4%
MCV ([…], time 14 day): 62.2 fL
Mono ([…], time 14 day): 3%
Neu ([…], time 14 day): 14.4%
PT ([…], time 14 day): 12.4 s
Plat ([…], time 14 day): 117 x10_4/uL
RBC ([…], time 14 day): 678.6 x10_4/ul
Ret ([…], time 14 day): 3%
WBC ([…], time 14 day): 116.8 x10_2/uL
APTT ([…], time 28 day): 20.6 s
Bas ([…], time 28 day): 0%
Eos ([…], time 28 day): 0.8%
Fbg ([…], time 28 day): 220 mg/dL
Hb ([…], time 28 day): 15.2 g/dL
Ht ([…], time 28 day): 44.8%
Lym ([…], time 28 day): 82.4%
MCH ([…], time 28 day): 19.7 pg
MCHC ([…], time 28 day): 34%
MCV ([…], time 28 day): 58 fL
Mono ([…], time 28 day): 2%
Neu ([…], time 28 day): 14%
PT ([…], time 28 day): 12.3 s
Plat ([…], time 28 day): 115.6 x10_4/uL
RBC ([…], time 28 day): 774.2 x10_4/ul
Ret ([…], time 28 day): 2.7%
WBC ([…], time 28 day): 130.8 x10_2/uL
KIDNEY_L ([…], time 7 day): 1.1 g
KIDNEY_R ([…], time 7 day): 1.2 g
KIDNEY_TOTAL ([…], time 7 day): 2.3 g
KIDNEY_L ([…], time 14 day): 1.2 g
KIDNEY_R ([…], time 14 day): 1.2 g
KIDNEY_TOTAL ([…], time 14 day): 2.4 g
KIDNEY_L ([…], time 28 day): 1.4 g
KIDNEY_R ([…], time 28 day): 1.4 g
KIDNEY_TOTAL ([…], time 28 day): 2.8 g
LIVER ([…], time 7 day): 12.6 g
LIVER ([…], time 14 day): 13.6 g
LIVER ([…], time 28 day): 16.1 g
A/G ([…], time 7 day): 1.6
ALP ([…], time 7 day): 944.2 IU/L
ALT ([…], time 7 day): 41.2 IU/L
AST ([…], time 7 day): 81 IU/L
BUN ([…], time 7 day): 14.6 mg/dL
CRE ([…], time 7 day): 0.4 mg/dL
Ca ([…], time 7 day): 10.8 mg/dL
Cl ([…], time 7 day): 103.4 meq/L
DBIL ([…], time 7 day): 0.1 mg/dL
GLC ([…], time 7 day): 206.8 mg/dL
IP ([…], time 7 day): 7.4 mg/dL
K ([…], time 7 day): 3.9 meq/L
LDH ([…], time 7 day): 155.4 IU/L
Na ([…], time 7 day): 142.2 meq/L
PL ([…], time 7 day): 146.6 mg/dL
RALB ([…], time 7 day): 3.5 g/dL
TBIL ([…], time 7 day): 0.2 mg/dL
TC ([…], time 7 day): 75.8 mg/dL
TG ([…], time 7 day): 112.2 mg/dL
TP ([…], time 7 day): 5.8 g/dL
gamma-GTP ([…], time 7 day): 1.2 IU/L
A/G ([…], time 14 day): 1.5
ALP ([…], time 14 day): 820.2 IU/L
ALT ([…], time 14 day): 32.8 IU/L
AST ([…], time 14 day): 55.8 IU/L
BUN ([…], time 14 day): 15 mg/dL
CRE ([…], time 14 day): 0.5 mg/dL
Ca ([…], time 14 day): 10.6 mg/dL
Cl ([…], time 14 day): 102.4 meq/L
DBIL ([…], time 14 day): 0.1 mg/dL
GLC ([…], time 14 day): 236 mg/dL
IP ([…], time 14 day): 7.3 mg/dL
K ([…], time 14 day): 4.2 meq/L
LDH ([…], time 14 day): 130.6 IU/L
Na ([…], time 14 day): 139.8 meq/L
PL ([…], time 14 day): 145.8 mg/dL
RALB ([…], time 14 day): 3.5 g/dL
TBIL ([…], time 14 day): 0.2 mg/dL
TC ([…], time 14 day): 73.6 mg/dL
TG ([…], time 14 day): 107.2 mg/dL
TP ([…], time 14 day): 5.8 g/dL
gamma-GTP ([…], time 14 day): 0.8 IU/L
A/G ([…], time 28 day): 1.5
ALP ([…], time 28 day): 889.4 IU/L
ALT ([…], time 28 day): 36.4 IU/L
AST ([…], time 28 day): 56.8 IU/L
BUN ([…], time 28 day): 15.2 mg/dL
CRE ([…], time 28 day): 0.5 mg/dL
Ca ([…], time 28 day): 10.5 mg/dL
Cl ([…], time 28 day): 102.8 meq/L
DBIL ([…], time 28 day): 0.078 mg/dL
GLC ([…], time 28 day): 240.2 mg/dL
IP ([…], time 28 day): 7.2 mg/dL
K ([…], time 28 day): 3.6 meq/L
LDH ([…], time 28 day): 155.8 IU/L
Na ([…], time 28 day): 141.2 meq/L
PL ([…], time 28 day): 132.8 mg/dL
RALB ([…], time 28 day): 3.5 g/dL
TBIL ([…], time 28 day): 0.2 mg/dL
TC ([…], time 28 day): 72.6 mg/dL
TG ([…], time 28 day): 65.4 mg/dL
TP ([…], time 28 day): 6 g/dL
gamma-GTP ([…], time 28 day): 1.2 IU/L
